Assay results reported in PubChem BioAssay AID2060887 (Molecular Pharmacology Branch, DTP, NCI, 2025).

Test system: 782815-120-R-J1-PDC complex spheroid viability
Experiment: Anticancer human tumor 782815-120-R-J1-PDC patient-derived colon adenocarcinoma cell line growth inhibition [RAS]
Details: for IC50: curve of first compound; for viability, T/C: stronger effect = lower value
Text: RAS pathway inhibitors in Combinations in Complex Spheroids
A high-throughput screen of multi-cell type tumor spheroids was designed to identify active combinations of RAS pathway inhibitors and targeted small molecules. Complex spheroids include a stromal component modeled by human endothelial cells (HUVEC) and fibroblasts modeled by human mesenchymal stem cells (MSCs). The concentration ranges selected for each drug and investigational agent were based upon clinically achievable concentrations if the clinical Cmax of the agent was known.
Compounds. The drugs and investigational agents: abemaciclib (NSC768073), cobimetinib (NSC768068), divarasib (GDC6063, NSC841802), docetaxel (NSC628503), GDC-1971 (RLY-1971, NSC841576), gemcitabine (NSC613327), inavolisib (NSC800729), ipatasertib (NSC767898), KB-0742 (NSC834161), MRTX-1133 (NSC836407), osimertinib (NSC779217), RMC-4630 (NSC839698), RMC-6236 (NSC851965), RMC-6291 (NSC852671), Ro-3306 (NSC812927), sapanisertib (NSC764658), SN-38 (NSC673596), staurosporine (NSC755774), SY5609 (NSC837396), and tovorafenib (DAY101, NSC766906), were obtained from the National Cancer Institute (NCI) Developmental Therapeutics Program Chemical Repository. The FDA-approved anticancer drug set is available from the NCI Developmental Therapeutics Program. […] The stock solutions were prepared in dimethyl sulfoxide (DMSO, Sigma-Aldrich, St. Louis, MO, cat. D2650) at 800-fold the tested concentration and stored at -70 degrees C prior to their use. All drugs and investigational agents were tested over a range starting from a high concentration at or near the clinical Cmax and decreasing in half-log increments. If the clinical Cmax for an agent had not been determined, the highest concentration tested was 10 microM.
Cell Culture. All cells were maintained in an incubator at 37 degrees C and 5% CO2 with 95% humidity. The PDC lines were cultured according to standard operating procedures established by the NCI PDMR. All PDCs were thawed and cultured in Matrigel-coated flasks prepared with a working solution of 1X Ham's F-12 nutrient mix, without supplementation (Invitrogen, Waltham, MA, cat. 11765054), 100 U/mL penicillin-streptomycin (Invitrogen, cat. 15140122), and 2.5% Matrigel (Corning Inc., Corning, NY, cat. 354248) for the first three passages. The 362531-283-R-J2-PDC and 782815-120-R-J1-PDC lines were cultured in 6C/Colon 1B media, which includes advanced DMEM/F-12 (Thermo Fisher Scientific, cat. 12634028), 10 mM HEPES (Thermo Fisher Scientific, cat. 15630080), 1X GlutaMAX supplement (Thermo Fisher Scientific, cat. 35050061), 0.1 mg/mL primocin (InvivoGen, San Diego, CA, cat. ant-pm-2), 10% defined fetal bovine serum, heat inactivated (HyClone Laboratories Inc., Logan, UT, cat. SH30070.03HI), 50% L-WRN conditioned media (ATCC, cat. CRL-3276), 1.25 mM N-Acetyl-L-cysteine (Sigma-Aldrich, cat. A9165), 10 mM nicotinamide (Sigma-Aldrich, cat. N0636), 1X B-27 supplement (Thermo Fisher Scientific, cat. 17504044), 1X N-2 supplement (Thermo Fisher Scientific, cat. 17502048), 50 ng/mL human EGF (Thermo Fisher Scientific, cat. PHG0311), and 10 microM Y-27632 dihydrochloride (Tocris Bioscience, cat. 1254). The K12877-001-R-J1-PDC line was cultured in 6I media, which includes all 6C/Colon 1B media plus 10 ng/mL human FGF-10 (PeproTech, cat. 100-26), 1 ng/mL human FGF-2 (PeproTech, cat. 100-18B), 1 µM prostaglandin E2 (Tocris Bioscience, cat. 2296), […] hydrocortisone (Sigma-Aldrich, cat. H4001), and […] bovine insulin (Sigma-Aldrich, cat. I6634). The K86415-001-R-J1-PDC line was cultured in 6D media, which includes all 6C/Colon 1B media components minus the L-WRN conditioned media. The 485176-168-R4-J1-PDC was cultured in PANC media, which includes all 6C/Colon 1B media plus 100 ng/mL human FGF-10 (PeproTech, cat. 100-26), 500 nM SB-431542 (Selleckchem, cat. S1067), and 10 nM gastrin (Tocris Bioscience, cat. 3006). […]

[1] = second compound 0.0316 µM, first compound 0.0316 µM
[2] = second compound 0.0316 µM, first compound 0.1 µM
[3] = second compound 0.0316 µM, first compound 0.316 µM
[4] = second compound 0.0316 µM, first compound 1 µM
[5] = second compound 0.0316 µM, first compound 3.16 µM
[6] = second compound 0.0316 µM, first compound 10 µM
[7] = second compound 0.1 µM, first compound 0.0316 µM
[8] = second compound 0.1 µM, first compound 0.1 µM
[9] = second compound 0.1 µM, first compound 0.316 µM
[10] = second compound 0.1 µM, first compound 1 µM
[11] = second compound 0.1 µM, first compound 3.16 µM
[12] = second compound 0.1 µM, first compound 10 µM
[13] = second compound 0.316 µM, first compound 0.0316 µM
[14] = second compound 0.316 µM, first compound 0.1 µM
[15] = second compound 0.316 µM, first compound 0.316 µM
[16] = second compound 0.316 µM, first compound 1 µM
[17] = second compound 0.316 µM, first compound 3.16 µM
[18] = second compound 0.316 µM, first compound 10 µM
[19] = second compound 1 µM, first compound 0.0316 µM
[20] = second compound 1 µM, first compound 0.1 µM
[21] = second compound 1 µM, first compound 0.316 µM
[22] = second compound 1 µM, first compound 1 µM
[23] = second compound 1 µM, first compound 3.16 µM
[24] = second compound 1 µM, first compound 10 µM
[25] = second compound 3.16 µM, first compound 0.0316 µM
[26] = second compound 3.16 µM, first compound 0.1 µM
[27] = second compound 3.16 µM, first compound 0.316 µM
[28] = second compound 3.16 µM, first compound 1 µM
[29] = second compound 3.16 µM, first compound 3.16 µM
[30] = second compound 3.16 µM, first compound 10 µM
[31] = second compound 10 µM, first compound 0.0316 µM
[32] = second compound 10 µM, first compound 0.1 µM
[33] = second compound 10 µM, first compound 0.316 µM
[34] = second compound 10 µM, first compound 1 µM
[35] = second compound 10 µM, first compound 3.16 µM
[36] = second compound 10 µM, first compound 10 µM
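Note: spheroids exposed to compounds for 7 days before reading.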
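Throughout, for viability, T/C: 100% = DMSO vehicle control viability.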

## CC(C)NCC(C(=O)N1CCN(c2ncnc3c2C(C)CC3O)CC1)c1ccc(Cl)cc1 (stereo unspecified) + C#Cc1c(F)ccc2cc(O)cc(-c3ncc4c(N5CC6CCC(C5)N6)nc(OCC56CCCN5CC(F)C6)nc4c3F)c12
Second compound 0.0316 µM
  IC50: > 10 µM
Second compound 0.1 µM
  IC50: > 10 µM
Second compound 0.316 µM
  IC50: > 10 µM
Second compound 1 µM
  IC50: > 10 µM
Second compound 3.16 µM
  IC50: > 10 µM
Second compound 10 µM
  IC50: > 10 µM
[1]
  viability, T/C: 95.9%
[2]
  viability, T/C: 106%
[3]
  viability, T/C: 95.6%
[4]
  viability, T/C: 103%
[5]
  viability, T/C: 96.3%
[6]
  viability, T/C: 94.3%
[7]
  viability, T/C: 95.5%
[8]
  viability, T/C: 104%
[9]
  viability, T/C: 101%
[10]
  viability, T/C: 98.1%
[11]
  viability, T/C: 100%
[12]
  viability, T/C: 97%
[13]
  viability, T/C: 109%
[14]
  viability, T/C: 108%
[15]
  viability, T/C: 93.5%
[16]
  viability, T/C: 103%
[17]
  viability, T/C: 96.3%
[18]
  viability, T/C: 105%
[19]
  viability, T/C: 108%
[20]
  viability, T/C: 113%
[21]
  viability, T/C: 90.7%
[22]
  viability, T/C: 94.6%
[23]
  viability, T/C: 103%
[24]
  viability, T/C: 103%
[25]
  viability, T/C: 104%
[26]
  viability, T/C: 101%
[27]
  viability, T/C: 93.1%
[28]
  viability, T/C: 100%
[29]
  viability, T/C: 98.3%
[30]
  viability, T/C: 102%
[31]
  viability, T/C: 103%
[32]
  viability, T/C: 108%
[33]
  viability, T/C: 93.4%
[34]
  viability, T/C: 101%
[35]
  viability, T/C: 96.5%
[36]
  viability, T/C: 98.4%

## CC(C)n1nc(-c2ccc3oc(N)nc3c2)c2c(N)ncnc21 + C#Cc1c(F)ccc2cc(O)cc(-c3ncc4c(N5CC6CCC(C5)N6)nc(OCC56CCCN5CC(F)C6)nc4c3F)c12
Second compound 0.0316 µM
  IC50: > 0.1 µM
Second compound 0.1 µM
  IC50: > 0.1 µM
Second compound 0.316 µM
  IC50: > 0.1 µM
Second compound 1 µM
  IC50: > 0.1 µM
Second compound 3.16 µM
  IC50: > 0.1 µM
Second compound 10 µM
  IC50: > 0.1 µM
Second compound 0.0316 µM, first compound 0.000316 µM
  viability, T/C: 97%
Second compound 0.0316 µM, first compound 0.001 µM
  viability, T/C: 100%
Second compound 0.0316 µM, first compound 0.00316 µM
  viability, T/C: 105%
Second compound 0.0316 µM, first compound 0.01 µM
  viability, T/C: 98.1%
[1]
  viability, T/C: 91.8%
[2]
  viability, T/C: 85.2%
Second compound 0.1 µM, first compound 0.000316 µM
  viability, T/C: 99.1%
Second compound 0.1 µM, first compound 0.001 µM
  viability, T/C: 91.4%
Second compound 0.1 µM, first compound 0.00316 µM
  viability, T/C: 101%
Second compound 0.1 µM, first compound 0.01 µM
  viability, T/C: 89.6%
[7]
  viability, T/C: 97%
[8]
  viability, T/C: 81.6%
Second compound 0.316 µM, first compound 0.000316 µM
  viability, T/C: 96.6%
Second compound 0.316 µM, first compound 0.001 µM
  viability, T/C: 105%
Second compound 0.316 µM, first compound 0.00316 µM
  viability, T/C: 94.5%
Second compound 0.316 µM, first compound 0.01 µM
  viability, T/C: 108%
[13]
  viability, T/C: 88.1%
[14]
  viability, T/C: 84.1%
Second compound 1 µM, first compound 0.000316 µM
  viability, T/C: 99.7%
Second compound 1 µM, first compound 0.001 µM
  viability, T/C: 101%
Second compound 1 µM, first compound 0.00316 µM
  viability, T/C: 88.6%
Second compound 1 µM, first compound 0.01 µM
  viability, T/C: 105%
[19]
  viability, T/C: 93.7%
[20]
  viability, T/C: 83.8%
Second compound 3.16 µM, first compound 0.000316 µM
  viability, T/C: 98.7%
Second compound 3.16 µM, first compound 0.001 µM
  viability, T/C: 101%
Second compound 3.16 µM, first compound 0.00316 µM
  viability, T/C: 93.5%
Second compound 3.16 µM, first compound 0.01 µM
  viability, T/C: 92.6%
[25]
  viability, T/C: 92.1%
[26]
  viability, T/C: 84.4%
Second compound 10 µM, first compound 0.000316 µM
  viability, T/C: 101%
Second compound 10 µM, first compound 0.001 µM
  viability, T/C: 95.3%
Second compound 10 µM, first compound 0.00316 µM
  viability, T/C: 85.3%
Second compound 10 µM, first compound 0.01 µM
  viability, T/C: 92.8%
[31]
  viability, T/C: 88.8%
[32]
  viability, T/C: 74.7%

## CC(Nc1ccc2c(c1)OCCn1cc(N3C(=O)OCC3C(F)F)nc1-2)C(N)=O (stereo unspecified) + C#Cc1c(F)ccc2cc(O)cc(-c3ncc4c(N5CC6CCC(C5)N6)nc(OCC56CCCN5CC(F)C6)nc4c3F)c12
Second compound 0.0316 µM
  IC50: > 10 µM
Second compound 0.1 µM
  IC50: > 10 µM
Second compound 0.316 µM
  IC50: > 10 µM
Second compound 1 µM
  IC50: > 10 µM
Second compound 3.16 µM
  IC50: > 10 µM
Second compound 10 µM
  IC50: > 10 µM
[1]
  viability, T/C: 94.1%
[2]
  viability, T/C: 98.6%
[3]
  viability, T/C: 99.9%
[4]
  viability, T/C: 89.7%
[5]
  viability, T/C: 96.6%
[6]
  viability, T/C: 91.8%
[7]
  viability, T/C: 95.7%
[8]
  viability, T/C: 102%
[9]
  viability, T/C: 92.9%
[10]
  viability, T/C: 90%
[11]
  viability, T/C: 100%
[12]
  viability, T/C: 94.1%
[13]
  viability, T/C: 99%
[14]
  viability, T/C: 99.2%
[15]
  viability, T/C: 87.9%
[16]
  viability, T/C: 99.8%
[17]
  viability, T/C: 101%
[18]
  viability, T/C: 94.6%
[19]
  viability, T/C: 106%
[20]
  viability, T/C: 101%
[21]
  viability, T/C: 89%
[22]
  viability, T/C: 97.2%
[23]
  viability, T/C: 87.7%
[24]
  viability, T/C: 103%
[25]
  viability, T/C: 111%
[26]
  viability, T/C: 92.4%
[27]
  viability, T/C: 97.8%
[28]
  viability, T/C: 87.4%
[29]
  viability, T/C: 97.5%
[30]
  viability, T/C: 95.4%
[31]
  viability, T/C: 102%
[32]
  viability, T/C: 95.9%
[33]
  viability, T/C: 79%
[34]
  viability, T/C: 92.6%
[35]
  viability, T/C: 89.1%
[36]
  viability, T/C: 81.2%
